Experiments:
[1] = biological target: T1, α1β1 GABA-A recombinant receptors (Homo sapiens, UniProt P14867+P18505); assay: Two-electrode voltage clamp, modulation of GABA currents in Xenopus oocytes; type: cell-based
T1 construct: expressed in transfected cells; host or cells: Xenopus laevis oocytes injected with cRNA
T1 sequence (P14867 28-456): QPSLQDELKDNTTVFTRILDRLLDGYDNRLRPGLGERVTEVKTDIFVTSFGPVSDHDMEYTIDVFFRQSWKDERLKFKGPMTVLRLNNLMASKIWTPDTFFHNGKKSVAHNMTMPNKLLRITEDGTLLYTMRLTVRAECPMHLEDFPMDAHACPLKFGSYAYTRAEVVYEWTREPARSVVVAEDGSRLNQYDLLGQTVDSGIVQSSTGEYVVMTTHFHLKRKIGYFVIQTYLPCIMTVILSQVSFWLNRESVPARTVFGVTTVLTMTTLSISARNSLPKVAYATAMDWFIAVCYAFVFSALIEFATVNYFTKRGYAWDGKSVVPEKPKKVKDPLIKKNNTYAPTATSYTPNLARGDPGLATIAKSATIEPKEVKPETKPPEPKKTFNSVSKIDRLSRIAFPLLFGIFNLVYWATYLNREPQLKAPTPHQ
T1 sequence (P18505 26-474): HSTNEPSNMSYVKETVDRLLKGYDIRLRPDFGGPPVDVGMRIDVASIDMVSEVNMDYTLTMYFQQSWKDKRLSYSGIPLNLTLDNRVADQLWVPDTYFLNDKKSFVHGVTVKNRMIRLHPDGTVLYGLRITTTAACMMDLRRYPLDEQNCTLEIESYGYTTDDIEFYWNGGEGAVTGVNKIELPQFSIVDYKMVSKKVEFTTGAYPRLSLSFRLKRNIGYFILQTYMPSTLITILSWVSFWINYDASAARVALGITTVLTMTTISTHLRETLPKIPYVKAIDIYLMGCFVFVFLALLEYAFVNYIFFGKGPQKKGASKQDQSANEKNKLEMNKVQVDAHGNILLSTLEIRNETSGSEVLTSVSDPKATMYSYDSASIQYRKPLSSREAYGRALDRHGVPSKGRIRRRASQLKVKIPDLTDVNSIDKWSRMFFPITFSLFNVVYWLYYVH
Experimental: (§1) The compounds synthesized are also studied for their ability to cause opening of the channel of the GABA-A receptor or to allosterically modulate the currents caused by GABA. For this purpose, the GABA-A recombinant receptors are expressed in Xenopus oocytes. Briefly, Xenopus laevis oocytes are prepared, injected and defolliculated and the currents are recorded in the way described (E. Sigel, J. Physiol., 1987, 386, 73 and E. Sigel, R. Baur, G. Trube, H. Möhler, P. Malherbe, Neuron, 1990, 5, 703). The oocytes are injected with 50 nl of cRNA dissolved in 5 mM of K-Hepes (pH 6.8). This solution comprises the transcripts coding for the various subunits at a concentration of 10 nM for α1, 10 nM for β2 and 50 nM for γ2. The RNA transcripts are synthesized from linearized plasmids encoding the desired protein using the message machine kit (Ambion) according to the recommendations of the manufacturers. A poly(A) tail of approximately 300 residues is added to the transcripts using yeast poly(A) polymerase (USB or Amersham). The cRNA combinations are coprecipitated from ethanol and stored at −20° C. The transcripts are quantified on agarose gels, after having been stained with the RNA stain Radiant Red (Bio-Rad), by comparing the intensities of the stainings with various amounts of molecular weight markers (RNA-Ladder, Gibco-BRL). The electrophysiological experiments are carried out by the two-electrode voltage clamp method at a holding potential of −80 mV. The medium comprises 90 mM of NaCl, 1 mM of KCl, 1 mM of MgCl2, 1 mM of CaCl2 and 10 mM of Na-Hepes (pH 7.4). GABA is applied for 20 s and a washing period of 4 min is allowed in order to provide for the complete […]. The perfusion system is cleaned between the applications of the compounds by washing with dimethyl sulfoxide to prevent contamination. The compounds are applied at a concentration of 100 microM in the absence of GABA in order to see whether they can act as channel agonists. To study the allosteric modulation, GABA is first of all applied alone and then in combination with either […] or 100 microM of compounds.
(§2) Thus, it is observed that the compound R-30 (100 μM) produces a 5 times greater stimulation of the GABA currents in the receptors comprising the β2 subunits with respect to the receptors carrying only the β1 subunit (table 4). At 10 μM, the compound R-30 produces a stimulation only in the receptors comprising the β2 subunit. The anticonvulsant loreclezole similarly enhances the activity of the GABA-A receptor by interacting with a site present on the receptors comprising the β2 subunit (and the β3 subunit) but not present on the receptors comprising the β1 subunit (P. B. Wingrove, K. A. Wafford, C. Bain, P. J. Whiting, Proc. Natl. Acad. Sci. USA, 1994, 91, 4569). […] The compounds of the present invention therefore appear to stimulate the activity of GABA by acting on a different site from that of α-EMTBL and related compounds, despite the apparent structural resemblance of these two classes of compounds.

[2] = test system: α2β2 GABA-A recombinant receptors; assay: as above; type: cell-based; conditions: for % of stimulation of the GABA currents: α2β2
Experimental: as §1, §2

[3] = biological target: T2, α1β2γ2 recombinant GABA-A receptors (Homo sapiens, UniProt P14867+P18507+P47870); assay: cell-based; conditions: α1β2γ2
T2 construct: expressed in transfected cells; host or cells: Xenopus laevis oocytes injected with cRNA
T2 sequence (P47870 25-512 limits assumed, one chain of several): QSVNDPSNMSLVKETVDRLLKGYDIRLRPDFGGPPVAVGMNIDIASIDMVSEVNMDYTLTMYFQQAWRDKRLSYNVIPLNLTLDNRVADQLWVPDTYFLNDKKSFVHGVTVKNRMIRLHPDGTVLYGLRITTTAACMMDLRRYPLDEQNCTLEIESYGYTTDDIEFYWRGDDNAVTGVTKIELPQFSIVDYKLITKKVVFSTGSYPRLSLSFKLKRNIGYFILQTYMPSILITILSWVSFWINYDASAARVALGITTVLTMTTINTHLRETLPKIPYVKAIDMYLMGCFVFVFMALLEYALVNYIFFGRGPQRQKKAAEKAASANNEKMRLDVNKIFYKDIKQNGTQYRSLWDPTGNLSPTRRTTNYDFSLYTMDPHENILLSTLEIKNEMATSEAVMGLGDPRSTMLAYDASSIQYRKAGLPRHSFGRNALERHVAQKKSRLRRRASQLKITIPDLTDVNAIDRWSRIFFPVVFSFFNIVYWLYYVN
T2 sequence (P18507 40-475, one chain of several): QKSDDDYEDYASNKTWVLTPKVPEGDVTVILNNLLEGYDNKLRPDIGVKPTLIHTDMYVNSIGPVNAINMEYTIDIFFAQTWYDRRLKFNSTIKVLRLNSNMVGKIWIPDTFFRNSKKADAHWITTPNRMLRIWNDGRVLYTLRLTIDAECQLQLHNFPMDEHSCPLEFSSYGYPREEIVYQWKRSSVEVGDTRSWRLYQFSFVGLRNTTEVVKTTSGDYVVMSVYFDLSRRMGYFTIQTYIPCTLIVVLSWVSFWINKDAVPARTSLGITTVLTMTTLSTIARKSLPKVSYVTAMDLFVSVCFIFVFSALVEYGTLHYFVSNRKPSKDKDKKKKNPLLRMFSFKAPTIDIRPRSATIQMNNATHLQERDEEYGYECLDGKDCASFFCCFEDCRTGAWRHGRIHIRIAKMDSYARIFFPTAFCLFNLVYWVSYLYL

[4] = test system: GABA-A receptors comprising β2 or β3 subunits versus β1 subunit; conditions: Wingrove et al. 1994; cited from earlier work

Compound | % of stimulation of the GABA currents ([1]; 10 μM) | % of stimulation of the GABA currents ([1]; 100 μM) | % of stimulation of the GABA currents ([2]; 10 μM) | times greater stimulation of the GABA currents in receptors comprising β2 subunits with respect to β1 only ([2]; 100 μM) | % of stimulation of the GABA currents ([2]; 100 μM) | % of stimulation of the GABA currents ([3]; 10 μM) | % of stimulation of the GABA currents ([3]; 100 μM) | power relative to the corresponding S isomer in stimulating GABA currents [3] | affinity for receptors comprising β2 or β3 subunits relative to receptors comprising the β1 subunit [4]
3-(R)-Benzyloxycarbonylamino-3,3-di(C-propyl)-1,4-butyrolactone [Compound R-30] | −5 ± 11% | +92 ± 28% | +78 ± 4% | 5 times | +588 ± 166% | +51 ± 94% | +279 ± 94% | twice as powerful | 
Cl/C(=C\n1cncn1)c1ccc(Cl)cc1Cl [loreclezole] |  |  |  |  |  |  |  |  | 300 times

Reference: patent publication US6660769B1, “N substituted 3-amino-2,2-di-c-alkyl-1,4-butyrolactones and 1,4-thiobutyrolactones for use as promoter of γ-aminobutyric acid activity and for treating nervous disorders and preparation method” (priority 1999, dated 2003)
